Values quoted from earlier work, collected in patent US9682072B2, “Compositions and methods for treatment of lung dysfunction” (Children's Hospital Medical Center, priority 2015, dated 2017).

Tests used:
[1] = tested on: ovalbumin-induced lung inflammation; details: mouse, in vivo
FOXM1 = target: T1, FOXM1 (Homo sapiens, UniProt Q08050)
T1 sequence (Q08050 1-763): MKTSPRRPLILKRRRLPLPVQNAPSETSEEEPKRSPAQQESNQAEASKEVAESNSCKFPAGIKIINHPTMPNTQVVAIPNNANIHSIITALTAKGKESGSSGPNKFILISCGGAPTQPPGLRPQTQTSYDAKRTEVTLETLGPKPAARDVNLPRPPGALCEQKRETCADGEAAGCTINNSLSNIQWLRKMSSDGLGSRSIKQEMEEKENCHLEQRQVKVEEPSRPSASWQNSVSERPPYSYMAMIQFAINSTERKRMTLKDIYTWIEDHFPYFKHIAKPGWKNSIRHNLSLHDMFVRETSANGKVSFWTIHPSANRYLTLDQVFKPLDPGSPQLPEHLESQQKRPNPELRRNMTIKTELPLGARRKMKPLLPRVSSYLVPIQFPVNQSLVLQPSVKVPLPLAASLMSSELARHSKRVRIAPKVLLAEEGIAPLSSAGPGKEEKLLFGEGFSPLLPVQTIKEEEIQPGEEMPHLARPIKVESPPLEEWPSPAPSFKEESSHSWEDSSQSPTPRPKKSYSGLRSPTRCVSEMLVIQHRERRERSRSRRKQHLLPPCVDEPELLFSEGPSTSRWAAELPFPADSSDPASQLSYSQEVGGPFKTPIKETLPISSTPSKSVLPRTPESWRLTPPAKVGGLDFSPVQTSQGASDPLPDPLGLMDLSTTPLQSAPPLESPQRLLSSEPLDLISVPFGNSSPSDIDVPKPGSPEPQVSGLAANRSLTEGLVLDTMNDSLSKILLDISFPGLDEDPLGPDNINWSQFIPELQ

binding of FOXM1 to its target DNA (FOXM1)	SMILES	ovalbumin-induced lung inflammation [1]
–	N#CC(=C(/N)Sc1ccccc1N)/C(C#N)=C(\N)Sc1ccccc1N [Compound U0126]	diminished
inhibits	Nc1c(C(=O)Nc2ccc(F)cc2)sc2nc(-c3cccs3)cc(C(F)(F)F)c12 [FDI-6]	–
